In assay [1] the target is intracellular GCN2 (phosphorylation of the GCN2 substrate eIF2α) (Homo sapiens (Human), UniProt Q9P2K8). Kind of assay: GCN2 Cellular Inhibition Assay (AlphaScreen SureFire P-eIF2α Ser51, borrelidin-treated U2OS cells). As to conditions: 10 μM borrelidin, 1 h, phosphorylated eIF2α Ser51, read-out: GCN2 Biomarker (IC50). It counts as cell-based. An outline of the steps:
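U2OS cells adhered overnight, then given compound (top 40 μM, 4-fold serial dilutions) plus 10 μM borrelidin for 1 h at 37 °C. Lysates assayed for eIF2α phospho-Ser51 by AlphaScreen SureFire; % inhibition versus borrelidin-only wells.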

Another assay deals with GCN2 kinase (Homo sapiens (Human), UniProt Q9P2K8). The assay is described as follows: GCN2 Enzyme Inhibition Assay (Transcreener ADP2 fluorescence polarization). In kind it is biochemical. The note with it: 280 μM ATP, 200 μM (RS)7 peptide, 4 nM GCN2, 25° C.; for Ki: Ki(app). An outline of the steps:
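Transcreener ADP2 fluorescence polarization detection of ADP from 4 nM GCN2 with (RS)7 substrate in 25 mM Tris-HCl pH 7.5, 50 mM NaCl, 10 mM MgCl2, 1 mM DTT. Compound pre-incubated with enzyme 10 min at 25 °C; reaction started by ATP, run 1 h at 25 °C. IC50 and Ki(app) by tight-binding fit.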

SMILES strings stand for the structures.

For orientation: IC50 means the concentration needed to halve the response being measured.

Sequence of GCN2 kinase (Q9P2K8 whole entry): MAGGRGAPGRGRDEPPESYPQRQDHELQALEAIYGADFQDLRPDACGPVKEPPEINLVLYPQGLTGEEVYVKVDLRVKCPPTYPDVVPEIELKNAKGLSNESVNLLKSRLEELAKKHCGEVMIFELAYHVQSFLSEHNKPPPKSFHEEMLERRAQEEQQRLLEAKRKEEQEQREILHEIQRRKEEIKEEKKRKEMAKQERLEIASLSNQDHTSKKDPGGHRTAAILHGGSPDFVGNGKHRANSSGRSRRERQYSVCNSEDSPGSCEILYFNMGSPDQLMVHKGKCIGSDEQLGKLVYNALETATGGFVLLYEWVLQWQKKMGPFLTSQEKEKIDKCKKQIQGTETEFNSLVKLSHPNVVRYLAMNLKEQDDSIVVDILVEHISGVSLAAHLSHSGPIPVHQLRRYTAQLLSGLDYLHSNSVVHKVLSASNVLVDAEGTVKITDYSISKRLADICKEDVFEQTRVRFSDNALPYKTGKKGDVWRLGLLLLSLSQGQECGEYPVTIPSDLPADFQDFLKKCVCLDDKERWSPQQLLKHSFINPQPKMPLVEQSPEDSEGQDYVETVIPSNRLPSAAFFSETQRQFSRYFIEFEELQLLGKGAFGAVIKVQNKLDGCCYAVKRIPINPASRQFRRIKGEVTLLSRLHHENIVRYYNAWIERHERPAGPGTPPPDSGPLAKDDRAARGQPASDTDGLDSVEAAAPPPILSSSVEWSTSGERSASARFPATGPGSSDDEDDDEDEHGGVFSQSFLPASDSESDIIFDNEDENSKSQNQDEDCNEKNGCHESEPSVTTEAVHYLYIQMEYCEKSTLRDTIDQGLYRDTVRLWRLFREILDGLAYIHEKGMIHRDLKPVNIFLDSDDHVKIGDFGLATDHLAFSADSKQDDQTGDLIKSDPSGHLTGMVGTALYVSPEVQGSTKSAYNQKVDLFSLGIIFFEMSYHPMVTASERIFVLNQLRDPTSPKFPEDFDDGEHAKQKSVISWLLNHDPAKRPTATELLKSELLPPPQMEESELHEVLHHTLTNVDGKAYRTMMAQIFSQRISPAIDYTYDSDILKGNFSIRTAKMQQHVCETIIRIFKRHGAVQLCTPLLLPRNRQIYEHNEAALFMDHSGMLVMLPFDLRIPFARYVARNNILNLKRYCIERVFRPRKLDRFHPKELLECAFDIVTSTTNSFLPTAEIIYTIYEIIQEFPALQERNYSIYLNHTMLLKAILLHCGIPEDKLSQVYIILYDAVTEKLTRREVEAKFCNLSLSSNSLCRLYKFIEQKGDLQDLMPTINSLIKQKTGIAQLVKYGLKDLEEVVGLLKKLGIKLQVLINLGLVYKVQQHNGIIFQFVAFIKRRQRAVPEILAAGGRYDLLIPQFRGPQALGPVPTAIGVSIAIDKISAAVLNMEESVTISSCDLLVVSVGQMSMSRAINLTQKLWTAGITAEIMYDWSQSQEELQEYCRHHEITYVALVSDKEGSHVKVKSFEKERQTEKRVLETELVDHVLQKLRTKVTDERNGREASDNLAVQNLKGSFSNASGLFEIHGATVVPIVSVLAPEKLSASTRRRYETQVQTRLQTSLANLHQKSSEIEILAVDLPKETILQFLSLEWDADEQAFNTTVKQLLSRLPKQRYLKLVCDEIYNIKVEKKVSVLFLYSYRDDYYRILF
Sequence of intracellular GCN2 (phosphorylation of the GCN2 substrate eIF2α) (Q9P2K8 whole entry): as above

In the case of `FC(F)(F)c1ccc2ncc(-c3nccc(N4CCCC(n5ccc(C(F)(F)F)n5)C4)n3)n2c1` (stereo not shown) [I-355, 6-(trifluoromethyl)-3-(4-(3-(3-(trifluoromethyl)-1H-pyrazol-1-yl)piperidin-1-yl)pyrimidin-2-yl)imidazo[1,2-a]pyridine], the IC50 in assay [1] lay in the range of 500 to 5000 nM; against GCN2 kinase it was 100 to 1000 nM.

As to `CC1(C)CN(c2ccnc(-c3cnc4ccc(C(F)(F)F)cn34)n2)CCN1C(=O)C1CCC(=O)CC1` [I-492, 4-(2,2-dimethyl-4-(2-(6-(trifluoromethyl)imidazo[1,2-a]pyridin-3-yl)pyrimidin-4-yl)piperazine-1-carbonyl)cyclohexan-1-one], the IC50 in assay [1] fell in the range of 500 to 5000 nM; against GCN2 kinase, 10 to 100 nM.

With `O=C1NCC2CN(c3ccnc(-c4cnc5ccc(C(F)(F)F)cn45)n3)CCN12` (stereo not shown) [I-6, 7-(2-(6-(trifluoromethyl)imidazo[1,2-a]pyridin-3-yl)pyrimidin-4-yl)hexahydroimidazo[1,5-a]pyrazin-3(2H)-one], in assay [1], the IC50 fell in the range of 500 to 5000 nM. The Ki at GCN2 kinase fell in the range of 10 to 100 nM.

Consider `FC(F)(F)c1ccc2ncc(-c3ccnc(N4CCN(C[C@@H]5CCCOC5)[C@@H](c5cn[nH]c5)C4)n3)n2c1` [I-546, 3-(2-((S)-3-(1H-pyrazol-4-yl)-4-(((S)-tetrahydro-2H-pyran-3-yl)methyl)piperazin-1-yl)pyrimidin-4-yl)-6-(trifluoromethyl)imidazo[1,2-a]pyridine], for which the IC50 in assay [1] was under 500 nM; on GCN2 kinase, under 10 nM.

In the case of `C[C@H]1CN(c2ccnc(-c3cnc4ccc(C(F)(F)F)cn34)n2)[C@@H](C)[C@@H](c2cn[nH]c2)N1` (stereo in doubt) [I-37, 3-[4-[2,5-Dimethyl-3-(1H-pyrazol-4-yl)piperazin-1-yl]pyrimidin-2-yl]-6-(trifluoromethyl)imidazo[1,2-a]pyridine], the IC50 in assay [1] was under 500 nM. Moreover, on GCN2 kinase, the Ki was under 10 nM.

Turning to `Cc1[nH]ncc1[C@@H]1[C@@H](C)N(c2ccnc(-c3cnc4ccc(C(F)(F)F)cn34)n2)CCN1C1COC1` [I-368], the figures for the IC50 (in assay [1]; against GCN2 kinase) were 500 to 5000 nM and 100 to 1000 nM, respectively.

With `Cc1cc(-c2cnc3ccc(Cl)cn23)nc(N2C[C@@H](C)C[C@@H](c3cn[nH]c3)C2)n1` [I-208, 6-chloro-3-(6-methyl-2-((3S,5S)-3-methyl-5-(1H-pyrazol-4-yl)piperidin-1-yl)pyrimidin-4-yl)imidazo[1,2-a]pyridine], the values for the IC50 (in assay [1]; on GCN2 kinase) were under 500 nM and 10 to 100 nM, respectively.

Turning to `C[C@H]1C[C@@H](c2cn[nH]c2)CN(c2nccc(-c3cnc4ccc(Cl)cn34)n2)C1` [I-199, 6-chloro-3-(2-((3S,5S)-3-methyl-5-(1H-pyrazol-4-yl)piperidin-1-yl)pyrimidin-4-yl)imidazo[1,2-a]pyridine], the IC50 is under 500 nM in assay [1] and under 10 nM against GCN2 kinase.

Turning to `NC(=O)C1CN(c2ccnc(-c3cnc4cc(F)c(Cl)cn34)n2)CCN1C1CC1` (stereo not shown) [I-389, 4-(2-(6-chloro-7-fluoroimidazo[1,2-a]pyridin-3-yl)pyrimidin-4-yl)-1-cyclopropylpiperazine-2-carboxamide], the results for the IC50 (in assay [1]; against GCN2 kinase) were 500 to 5000 nM and 10 to 100 nM, respectively.

On to `FC(F)(F)c1ccc2ncc(-c3nccc(N4CCNC(c5cn[nH]c5)C4)n3)n2c1` (stereo not shown) [I-351, 3-(4-(3-(1H-pyrazol-4-yl)piperazin-1-yl)pyrimidin-2-yl)-6-(trifluoromethyl)imidazo[1,2-a]pyridine], for which the figures for the IC50 (in assay [1]; on GCN2 kinase) were under 500 nM and under 10 nM, respectively.

Consider `Cc1[nH]ncc1[C@H]1C[C@H](O)CN(c2ccnc(-c3cnc4ccc(C(F)(F)F)cn34)n2)C1` [I-307, (3 S, 5R)-5-(5-methyl-1H-pyrazol-4-yl)-1-(2-(6-(trifluoromethyl)imidazo[1,2-a]pyridin-3-yl)pyrimidin-4-yl)piperidin-3-ol], for which the figures for the half-maximal inhibitory concentration (IC50) (in assay [1]; against GCN2 kinase) were 500 to 5000 nM and 10 to 100 nM, respectively.

As for `OCC1CN(c2ccnc(-c3cnc4ccc(C(F)(F)F)cn34)n2)CCC1O` (stereo not shown) [I-241, 3-(hydroxymethyl)-1-(2-(6-(trifluoromethyl)imidazo[1,2-a]pyridin-3-yl)pyrimidin-4-yl)piperidin-4-ol], the IC50 was in the range of 500 to 5000 nM in assay [1] and 10 to 100 nM at GCN2 kinase.

Regarding `CC1CC(N=S(C)(C)=O)CN(c2ccnc(-c3cnc4ccc(C(F)(F)F)cn34)n2)C1` (stereo not shown) [I-31, Dimethyl((5-methyl-1-(2-(6-(trifluoromethyl)imidazo[1,2-a]pyridin-3-yl)pyrimidin-4-yl)piperidin-3-yl)imino)-λ^6-sulfanone], in assay [1], the IC50 was 500 to 5000 nM. On GCN2 kinase, this molecule returned a Ki of 10 to 100 nM.

For the molecule `CS(=O)(=O)NCC1CCCN(c2nc(-c3cnc4ccc(C(F)(F)F)cn34)ns2)C1` (stereo not shown) [I-112, N-((1-(3-(6-(trifluoromethyl)imidazo[1,2-a]pyridin-3-yl)-1,2,4-thiadiazol-5-yl)piperidin-3-yl)methyl)methanesulfonamide], the half-inhibitory concentration (IC50) in assay [1] was in the range of 500 to 5000 nM. On GCN2 kinase, the Ki was under 10 nM.

As for `C[C@@H]1C[C@@H](NC(=O)OC(C)(C)C)CN(c2ccnc(-c3cnc4ccc(Cl)cn34)n2)C1` [I-252, tert-butyl ((3R,5R)-1-(2-(6-chloroimidazo[1,2-a]pyridin-3-yl)pyrimidin-4-yl)-5-methylpiperidin-3-yl)carbamate], the IC50 in assay [1] lay within 500 to 5000 nM; at GCN2 kinase it was 100 to 1000 nM.

Regarding `O=C(c1cocn1)N1CCN(c2ccnc(-c3cnc4ccc(C(F)(F)F)cn34)n2)CC1c1cn[nH]c1` (stereo not shown) [I-443, (2-(1H-pyrazol-4-yl)-4-(2-(6-(trifluoromethyl)imidazo[1,2-a]pyridin-3-yl)pyrimidin-4-yl)piperazin-1-yl)(oxazol-4-yl)methanone], the IC50 in assay [1] fell in the range of 500 to 5000 nM; against GCN2 kinase, 10 to 100 nM.

In the case of `Cc1[nH]ncc1[C@H]1CN(c2nccc(-c3cnc4ccc(Cl)cn34)n2)C[C@@H](C)O1` [I-180, (2R,6S)-4-(4-(6-chloroimidazo[1,2-a]pyridin-3-yl)pyrimidin-2-yl)-2-methyl-6-(5-methyl-1H-pyrazol-4-yl)morpholine], the IC50 is under 500 nM in assay [1] and under 10 nM against GCN2 kinase.

Consider `C[C@@H]1C[C@H](N=S(C)(C)=O)CN(c2ccnc(-c3cnc4ccc(Oc5ccccc5)cn34)n2)C1` [I-325, dimethyl({[(3 S,5R)-5-methyl-1-(2-{6-phenoxyimidazo[1,2-a]pyridin-3-yl}pyrimidin-4-yl)piperidin-3-yl]imino})-λ6-sulfanone], for which the IC50 is 500 to 5000 nM in assay [1] and 100 to 1000 nM against GCN2 kinase.

With `NS(=O)(=O)C1CCCN(c2ccnc(-c3cnc4ccc(C(F)(F)F)cn34)n2)C1` (stereo not shown) [I-242, 1-(2-(6-(trifluoromethyl)imidazo[1,2-a]pyridin-3-yl)pyrimidin-4-yl)piperidine-3-sulfonamide], the figures for the IC50 (in assay [1]; against GCN2 kinase) were over 5000 nM and 10 to 100 nM, respectively.

Regarding `FC(F)(F)c1ccc2ncc(-c3nccc(N4CCN(CC5CC5(F)F)C(c5cn[nH]c5)C4)n3)n2c1` (stereo not shown) [I-470, 3-(4-(4-((2,2-difluorocyclopropyl)methyl)-3-(1H-pyrazol-4-yl)piperazin-1-yl)pyrimidin-2-yl)-6-(trifluoromethyl)imidazo[1,2-a]pyridine], the values for the IC50 (in assay [1]; at GCN2 kinase) were under 500 nM and under 10 nM, respectively.

For `Cc1[nH]ncc1[C@H]1CN(c2nccc(-c3cnc4ccc(Cl)cn34)n2)C[C@H](C)O1` (stereo in doubt) [I-181, (2S,6S)-4-(4-(6-chloroimidazo[1,2-a]pyridin-3-yl)pyrimidin-2-yl)-2-methyl-6-(5-methyl-1H-pyrazol-4-yl)morpholine], the figures for the IC50 (in assay [1]; on GCN2 kinase) were 500 to 5000 nM and 10 to 100 nM, respectively.

For `CC1(C)C[C@@H]1CN1CCN(c2ccnc(-c3cnc4ccc(C(F)(F)F)cn34)n2)C[C@H]1c1cn[nH]c1` [I-529, 3-(4-((R)-4-(((S)-2,2-dimethylcyclopropyl)methyl)-3-(1H-pyrazol-4-yl)piperazin-1-yl)pyrimidin-2-yl)-6-(trifluoromethyl)imidazo[1,2-a]pyridine], the IC50 in assay [1] was under 500 nM; against GCN2 kinase, under 10 nM.

For the molecule `Cc1cc(-c2cnc3ccc(N4CC(F)(F)C4)cn23)nc(N2C[C@H](C)C[C@H](c3cn[nH]c3)C2)n1` [I-288, 6-(3,3-difluoroazetidin-1-yl)-3-(6-methyl-2-((3R,5R)-3-methyl-5-(1H-pyrazol-4-yl)piperidin-1-yl)pyrimidin-4-yl)imidazo[1,2-a]pyridine], the IC50 in assay [1] is under 500 nM; against GCN2 kinase, under 10 nM.

Take `O=C(c1cnn(C2COC2)c1)N1CCN(c2ccnc(-c3cnc4ccc(C(F)(F)F)cn34)n2)CC1c1cn[nH]c1` (stereo not shown) [I-417, (2-(1H-pyrazol-4-yl)-4-(2-(6-(trifluoromethyl)imidazo[1,2-a]pyridin-3-yl)pyrimidin-4-yl)piperazin-1-yl)(1-(oxetan-3-yl)-1H-pyrazol-4-yl)methanone]: the IC50 in assay [1] was over 5000 nM; against GCN2 kinase, 100 to 1000 nM.

Take `CS(=O)(=O)NC[C@@H]1CN(c2nc(-c3cnc4ccc(C(F)F)cn34)ns2)CCO1` [I-107, (S)—N-((4-(3-(6-(difluoromethyl)imidazo[1,2-a]pyridin-3-yl)-1,2,4-thiadiazol-5-yl)morpholin-2-yl)methyl)methanesulfonamide]: the IC50 in assay [1] is under 500 nM. At GCN2 kinase, this molecule showed a Ki of under 10 nM.

As to `Cc1ncc(CN2CCN(c3ccnc(-c4cnc5ccc(C(F)(F)F)cn45)n3)CC2c2cn[nH]c2)[nH]1` (stereo not shown) [I-372, 3-(4-(4-((2-methyl-1H-imidazol-5-yl)methyl)-3-(1H-pyrazol-4-yl)piperazin-1-yl)pyrimidin-2-yl)-6-(trifluoromethyl)imidazo[1,2-a]pyridine], the IC50 was 500 to 5000 nM in assay [1] and under 10 nM at GCN2 kinase.

Values taken from patent US10793563B2, “GCN2 inhibitors and uses thereof” (Merck Patent GmbH, priority 2018, dated 2020).
